Calls of active or inactive are those of the source. The rule behind the calls is not given here.
What was measured:
[1] = biological target: T1, Transketolase (Homo sapiens, UniProt P29401); test: Inhibition of transketolase by TPPK/apo-TK coupled assay
T1 sequence (P29401 whole entry): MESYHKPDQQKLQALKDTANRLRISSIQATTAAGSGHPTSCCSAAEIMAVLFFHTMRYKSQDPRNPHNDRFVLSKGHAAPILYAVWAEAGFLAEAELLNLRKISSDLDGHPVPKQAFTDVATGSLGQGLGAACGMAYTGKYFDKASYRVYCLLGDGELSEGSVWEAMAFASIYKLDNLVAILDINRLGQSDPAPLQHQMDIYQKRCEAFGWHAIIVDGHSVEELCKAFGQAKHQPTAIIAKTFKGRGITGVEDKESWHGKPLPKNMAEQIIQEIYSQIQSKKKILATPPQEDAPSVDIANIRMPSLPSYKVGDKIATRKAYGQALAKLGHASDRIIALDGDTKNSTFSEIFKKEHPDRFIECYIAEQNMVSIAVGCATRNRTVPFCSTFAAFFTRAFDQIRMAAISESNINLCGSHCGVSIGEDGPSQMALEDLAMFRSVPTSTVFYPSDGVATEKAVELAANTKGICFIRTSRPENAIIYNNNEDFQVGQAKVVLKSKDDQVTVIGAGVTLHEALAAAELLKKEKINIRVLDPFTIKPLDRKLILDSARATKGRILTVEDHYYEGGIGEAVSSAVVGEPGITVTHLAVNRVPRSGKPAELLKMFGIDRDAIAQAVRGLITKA

[2] = biological target: T1, Transketolase; test: Inhibition of human transketolase in HCT116 cells; type: cell-based, HCT-116
[3] = system: Mus musculus; test: Inhibition of transketolase activity in human HCT116 cells xenografted mouse at 100 mg/kg, iv bid for 2 weeks; type: functional, organism-based; parameters: dose 100 mg/kg; settings: HCT-116
[4] = system: HCT-116; test: Antitumor activity against human HCT116 cells xenografted mouse assessed as reduction in tumor size at 100 mg/kg, iv bid for 2 weeks; type: functional, organism-based; parameters: dose 100 mg/kg
[5] = system: Mus musculus; test: Inhibition of alphaKGDH activity in human HCT116 cells xenografted mouse at 100 mg/kg, iv bid for 2 weeks; type: functional, organism-based; parameters: dose 100 mg/kg; settings: HCT-116
[6] = system: Mus musculus; test: Inhibition of G6PD activity in human HCT116 cells xenografted mouse at 100 mg/kg, iv bid for 2 weeks; type: functional, organism-based; parameters: dose 100 mg/kg; settings: HCT-116
[7] = biological target: T1, Transketolase; test: Binding affinity to apo-transketolase

| Structure (SMILES) | Kd [1] [nM] | EC50 [2] [nM] | also measured |
| --- | --- | --- | --- |
| CCc1ccc(C[n+]2csc(CCO)c2C)c(N)n1 | 10 | 8.7 | – |
| Cc1ccc(C[n+]2csc(CCO)c2C)c(N)n1 | 33 | 26 | Activity [3]: Active; Activity [4]: inactive; Activity [5]: Active; Activity [6]: inactive |
| Cc1ccc(C[n+]2c(Cc3cccnc3)sc(CCO)c2C)c(N)n1 | – | 840 | – |
| Cc1ccc(C[n+]2csc([C@H](O)CO)c2C)c(N)n1 | 28 | 50 | – |
| Cc1ccc(C[n+]2csc(CCO)c2CO)c(N)n1 | 25 | 570 | – |
| Cc1c(CCO)sc[n+]1Cc1ccc(N)nc1 | 7 | 1600 | – |
| Cc1cncc(C[n+]2csc(CCO)c2C)c1 | 220 | 38000 | – |
| Cc1ccc(C[n+]2csc(CCO)c2)c(N)n1 | 29 | – | – |
| Cc1ccc(C[n+]2cc(CCO)sc2C)c(N)n1 | 36 | 490 | – |
| CC(=O)Nc1ccc(C[n+]2csc(CCO)c2C)c(N)n1 | 23 | 800 | – |
| Cc1c(CCO)sc[n+]1Cc1c(C(F)(F)F)cc(C(F)(F)F)nc1N | 1460 | – | – |
| CCc1sc(CCO)c(C)[n+]1Cc1ccc(C)nc1N | 75 | 21 | – |
| Cc1c(CCO)sc[n+]1Cc1ccc(Cl)nc1N | 46 | – | – |
| Cc1c(CCO)sc[n+]1Cc1ccc(C(=O)c2ccccc2C(=O)O)nc1 | 140 | 3100 | – |
| Cc1c(CCO)sc[n+]1Cc1cc(I)cnc1N | 109 | 1000 | – |
| Cc1c(CCO)sc[n+]1Cc1ccc(C(F)(F)F)nc1 | 310 | 470 | – |

| Structure (SMILES) | Kd [1] [nM] | EC50 [2] [nM] | also measured |
| --- | --- | --- | --- |
| Cc1ccc(C[n+]2c(-c3ccc4c(c3)OCO4)sc(CCO)c2C)c(N)n1 | – | 25000 | – |
| Cc1ccc(C[n+]2csc([C@@H](O)CO)c2C)c(N)n1 | 27 | 2000 | – |
| CCc1c(CCO)sc[n+]1Cc1ccc(C)nc1N | 40 | 950 | – |
| Cc1ccc(C[n+]2c(C)sc(CCO)c2C)c(N)n1 | 25 | 56 | – |
| Cc1ccc(C[n+]2csc(CCOP(=O)(O)OP(=O)(O)O)c2C)c(N)n1 | – | – | Kd [7]: 22 nM |
| Cc1ccc(C[n+]2c(C(C)O)sc(CCO)c2C)c(N)n1 (configuration not stated) | 120 | 30 | – |
| Cc1c(CCO)sc[n+]1Cc1cnccc1N | 64 | 24000 | – |
| Cc1c(CCO)sc[n+]1Cc1ccc(C(F)(F)F)nc1N | 104 | 160 | – |
| COC(=O)CCc1sc[n+](Cc2ccc(C)nc2N)c1C | – | 2300 | – |
| CC(=O)OCCc1sc[n+](Cc2ccc(C)nc2N)c1C | – | 4.7 | – |
| Cc1ccc(C[n+]2csc(CCC#N)c2C)c(N)n1 | – | 2200 | – |
| Cc1c(CCO)sc[n+]1Cc1ccc(C#N)nc1N | 57 | 360 | – |
| Cc1c(CCO)sc[n+]1Cc1cccnc1N | 36 | – | – |
| Cc1cc(C)c(C[n+]2csc(CCO)c2C)c(N)n1 | 34 | 8.3 | – |
| Cc1ccc(C[n+]2csc(C(O)CO)c2C)c(N)n1 (configuration not stated) | 53 | 300 | – |
| Cc1ccc(C[n+]2csc(CCCO)c2C)c(N)n1 | – | 1300 | – |

Reference: ChEMBL document CHEMBL1143137, “Synthesis, in vitro and in vivo activity of thiamine antagonist transketolase inhibitors” (Bioorg Med Chem Lett, 2008)
